Reference: patent US20240059685A1, “PIEZO1 AGONISTS FOR THE PROMOTION OF BONE FORMATION” (BIOVENTURES, LLC, priority 2019, published 2024)
“Also recorded” adds a separate entry of the source.

Columns and labels:
Assay type in all cases: cell-based, murine
[1] = target: T1, Piezo1 (Mus musculus, UniProt E2JF22); assay: qPCR gene expression of Wnt1, Ptgs2 and Tnfrsf11b in MLO-Y4 cells; details: MLO-Y4 cells, 10 μM, 2 hours
T1 construct: To identify Piezo1 stimulators, we treated MLO-Y4 cells with compounds; endogenous in cells; host or cells: MLO-Y4 (murine osteocyte-like cell line); control sh-Luc cells, with sh-Piezo1 knock-down cells as the specificity control
Protocol: Cell cultures. MLO-Y4 cells were cultured in α-MEM supplemented with 5% FBS, 5% BCS, and 1% penicillin/streptomycin/glutamine. Fifteen dynes/cm^2 oscillatory fluid shear stress was applied on MLO-Y4 cells at 1 Hz for 2 hours using an IBDI pump system (IBIDI, German). For Yoda1 treatment, cells were cultured in the presence of 10 μM Yoda1 (Sigma, St. Louis, MO) or DMSO for 2 hours. Immediately after the treatments, we isolated RNA from cells using RNeasy mini kit (Qiagen, German) for qPCR or RNA-seq analysis. To silence Piezo1, we generated Piezo1 shRNA expression plasmid using the following oligonucleotides in the pLKO.1-TRC cloning vector (Addgene Plasmid #10878, a gift from David Root): forward oligo: 5′-CCGGTC-[…]-3′ (SEQ ID NO: 1); reverse oligo: 5′-[…]-CGA-3′ (SEQ ID NO: 2) (Zhang et al., 2017). Yap1 shRNA (TRCN0000238432) and Taz shRNA (TRCN0000095951) were purchased from Sigma (St. Louis, MO). A shRNA against firefly luciferase was used as a control (Sigma, St. Louis, MO). For virus production, HEK293T cells were cultured in a 6-well culture plate and co-transfected with a total 3 μg of lentiviral shRNA vector, pMD2G (Addgene plasmid #12259, a gift from Didier Trono), and psPAX2 (Addgene plasmid #12260, a gift from Didier Trono) at the ratio of 2:0.9:0.4 using TransIT-LT1 transfection reagent (Mirus, Madison, WI). Culture media was changed 12 hours after transfection and viral supernatants were collected 48 hours after media change. Viral supernatants were filtered through a 0.45 μm filter and used immediately to transduce cells cultured in a 10 cm dish. Cells were then subjected to selection with G418 (100 μg/ml) or puromycin (25 μg/ml) for 5 days before treatment. To overexpress Piezo1 in MLO-Y4 cells, we transfected mPiezo1-IRES-eGFP (Addgene plasmid #80925, a gift from Ardem Patapoutian) into MLO-Y4 cells using TransIT-LT1 transfection reagent (Mirus, Madison, WI) and then treated these cells with 15 dynes/cm^2 oscillatory fluid shear stress at 1 Hz for 2 hours. Plasmids for expression of Cas9 and sgRNAs for knocking out Piezo1 in UAMS-32 cells were prepared by inserting oligonucleotides encoding the desired sgRNA sequence into the pX458 vector using the protocol recommended by the Zhang laboratory (Cong et al., 2013). Plasmids expressing Cas9 and Piezo1 sgRNAs were transfected into UAMS-32 cells using TransIT-LT1 transfection reagent (Mirus, Madison, WI). Cells were sorted into 96-well plates for single cell cloning 48 hours after transfection. Single cell colonies were then screened for homozygous deletion using the following primers: Forward: 5′-[…]-3′ (SEQ ID NO: 5), Reverse: 5′-[…]-3′ (SEQ ID NO: 6). All homozygous mutant cell colonies were then pooled together for further analysis. Cas9 transfected cells were used as a control. All in vitro cell culture experiments were performed three times with three technical replicates.
Quantitative PCR. Organs and whole bones were harvested from animals, removed of soft tissues, and stored immediately in liquid nitrogen. We prepared osteocyte-enriched bone by removing the ends of femurs and tibias and then flushing the bone marrow with PBS. We then scraped the bone surface with a scalpel and froze them in liquid nitrogen for later RNA isolation, or decalcified them for genomic DNA isolation. We isolated total RNA using TRIzol (Life technologies, NY), according to the manufacturer's instructions and prepared cDNA using High Capacity first strand cDNA synthesis kit (Life Technologies). We performed quantitative RT-PCR using the following Taqman assays from Applied Biosystems: Piezo1 (Mm01241549_m1); Piezo2 (Mm01265861_m1); Ptgs2 (Mm00478374_m1); Cyr61 (Mm00487498_m1); Wnt1 (Mm01300-555_g1); Yap1 (Mm011432-63_m1); Taz (Mm01289583_m1); Tnfsf11 Mm00441906_m1; Tnfrsf11b (Mm00435452_m1); Sost (Mm00470479_m1); and ribosomal protein S2 (Mrps2) (Mm00475529_m1). We calculated relative mRNA amounts using the ΔCt method (Livak and Schmittgen, 2001). […]

[2] = target: T1, Piezo1; assay: Intracellular calcium concentration (Fluo-8) in control or Piezo1 knock-down MLO-Y4 cells; details: Piezo1 knock-down (sh-Piezo1) MLO-Y4 cells, 10 μM
Protocol: Calcium concentration measurement. For intracellular calcium concentration measurement under fluid flow condition, 1×10^5 MLO-Y4 cells were seeded in a μ-Slide I Luer (0.4 mm) fluid chamber slide (MIDI, Germany) overnight. One hour before initiating fluid flow, the culture medium was removed and 100 μl Hank's Buffer with Hepes (HHBS) containing 4μM Fluo-8 (Abcam, Cambridge, MA) was added to the culture, as described by the manufacturer. The cells were then cultured at 37° C. for 30 minutes. After additional incubation at room temperature for 30 minutes, the chamber slide was placed under a confocal microscope in order to record the intensity of fluorescence of MLO-Y4 cells. Fluorescence was recorded for 3 minutes before starting fluid flow using HHBS and then recorded for another 10 minutes. The increase of intracellular concentration was calculated by subtracting the initial mean fluorescence. For measuring intracellular calcium concentration in cells with Yoda1 treatment, we cultured 4,000 MLO-Y4 cells per well in a 96-well-plate. We preloaded the cells with Fluo-8 as described by the manufacturer and read the intensity of the fluorescence using a Victor X3 multi-label plate reader (Perkin Elmer, Waltham, MA) immediately after the treatment. We measured the fluorescence for 5 minutes at an interval of 20 seconds. The percentage of increase in intracellular calcium concentration was calculated as (Fx-F0)/F0.
(§1) To identify Piezo1 stimulators, we treated MLO-Y4 cells with compounds Yoda1, YW-3-159, W-3-163, W-3-168-1, W-3-168-2, W-3-170, W-3-173-1, W-3-173-2, and YW-3-174. Gene expression of Wnt1, Ptgs2, and Tnfrsf11b was measured to determine the activation of Piezo1. In addition, intracellular calcium concentration was measured to determine the activity of Piezo1 channel. […] Yoda1 was used as a positive control in all experiments.

[3] = target: T1, Piezo1; assay: Activation of Piezo1 in MLO-Y4 cells, overall conclusion from gene expression and calcium influx
Protocol: as §1

T1 sequence (E2JF22 whole entry): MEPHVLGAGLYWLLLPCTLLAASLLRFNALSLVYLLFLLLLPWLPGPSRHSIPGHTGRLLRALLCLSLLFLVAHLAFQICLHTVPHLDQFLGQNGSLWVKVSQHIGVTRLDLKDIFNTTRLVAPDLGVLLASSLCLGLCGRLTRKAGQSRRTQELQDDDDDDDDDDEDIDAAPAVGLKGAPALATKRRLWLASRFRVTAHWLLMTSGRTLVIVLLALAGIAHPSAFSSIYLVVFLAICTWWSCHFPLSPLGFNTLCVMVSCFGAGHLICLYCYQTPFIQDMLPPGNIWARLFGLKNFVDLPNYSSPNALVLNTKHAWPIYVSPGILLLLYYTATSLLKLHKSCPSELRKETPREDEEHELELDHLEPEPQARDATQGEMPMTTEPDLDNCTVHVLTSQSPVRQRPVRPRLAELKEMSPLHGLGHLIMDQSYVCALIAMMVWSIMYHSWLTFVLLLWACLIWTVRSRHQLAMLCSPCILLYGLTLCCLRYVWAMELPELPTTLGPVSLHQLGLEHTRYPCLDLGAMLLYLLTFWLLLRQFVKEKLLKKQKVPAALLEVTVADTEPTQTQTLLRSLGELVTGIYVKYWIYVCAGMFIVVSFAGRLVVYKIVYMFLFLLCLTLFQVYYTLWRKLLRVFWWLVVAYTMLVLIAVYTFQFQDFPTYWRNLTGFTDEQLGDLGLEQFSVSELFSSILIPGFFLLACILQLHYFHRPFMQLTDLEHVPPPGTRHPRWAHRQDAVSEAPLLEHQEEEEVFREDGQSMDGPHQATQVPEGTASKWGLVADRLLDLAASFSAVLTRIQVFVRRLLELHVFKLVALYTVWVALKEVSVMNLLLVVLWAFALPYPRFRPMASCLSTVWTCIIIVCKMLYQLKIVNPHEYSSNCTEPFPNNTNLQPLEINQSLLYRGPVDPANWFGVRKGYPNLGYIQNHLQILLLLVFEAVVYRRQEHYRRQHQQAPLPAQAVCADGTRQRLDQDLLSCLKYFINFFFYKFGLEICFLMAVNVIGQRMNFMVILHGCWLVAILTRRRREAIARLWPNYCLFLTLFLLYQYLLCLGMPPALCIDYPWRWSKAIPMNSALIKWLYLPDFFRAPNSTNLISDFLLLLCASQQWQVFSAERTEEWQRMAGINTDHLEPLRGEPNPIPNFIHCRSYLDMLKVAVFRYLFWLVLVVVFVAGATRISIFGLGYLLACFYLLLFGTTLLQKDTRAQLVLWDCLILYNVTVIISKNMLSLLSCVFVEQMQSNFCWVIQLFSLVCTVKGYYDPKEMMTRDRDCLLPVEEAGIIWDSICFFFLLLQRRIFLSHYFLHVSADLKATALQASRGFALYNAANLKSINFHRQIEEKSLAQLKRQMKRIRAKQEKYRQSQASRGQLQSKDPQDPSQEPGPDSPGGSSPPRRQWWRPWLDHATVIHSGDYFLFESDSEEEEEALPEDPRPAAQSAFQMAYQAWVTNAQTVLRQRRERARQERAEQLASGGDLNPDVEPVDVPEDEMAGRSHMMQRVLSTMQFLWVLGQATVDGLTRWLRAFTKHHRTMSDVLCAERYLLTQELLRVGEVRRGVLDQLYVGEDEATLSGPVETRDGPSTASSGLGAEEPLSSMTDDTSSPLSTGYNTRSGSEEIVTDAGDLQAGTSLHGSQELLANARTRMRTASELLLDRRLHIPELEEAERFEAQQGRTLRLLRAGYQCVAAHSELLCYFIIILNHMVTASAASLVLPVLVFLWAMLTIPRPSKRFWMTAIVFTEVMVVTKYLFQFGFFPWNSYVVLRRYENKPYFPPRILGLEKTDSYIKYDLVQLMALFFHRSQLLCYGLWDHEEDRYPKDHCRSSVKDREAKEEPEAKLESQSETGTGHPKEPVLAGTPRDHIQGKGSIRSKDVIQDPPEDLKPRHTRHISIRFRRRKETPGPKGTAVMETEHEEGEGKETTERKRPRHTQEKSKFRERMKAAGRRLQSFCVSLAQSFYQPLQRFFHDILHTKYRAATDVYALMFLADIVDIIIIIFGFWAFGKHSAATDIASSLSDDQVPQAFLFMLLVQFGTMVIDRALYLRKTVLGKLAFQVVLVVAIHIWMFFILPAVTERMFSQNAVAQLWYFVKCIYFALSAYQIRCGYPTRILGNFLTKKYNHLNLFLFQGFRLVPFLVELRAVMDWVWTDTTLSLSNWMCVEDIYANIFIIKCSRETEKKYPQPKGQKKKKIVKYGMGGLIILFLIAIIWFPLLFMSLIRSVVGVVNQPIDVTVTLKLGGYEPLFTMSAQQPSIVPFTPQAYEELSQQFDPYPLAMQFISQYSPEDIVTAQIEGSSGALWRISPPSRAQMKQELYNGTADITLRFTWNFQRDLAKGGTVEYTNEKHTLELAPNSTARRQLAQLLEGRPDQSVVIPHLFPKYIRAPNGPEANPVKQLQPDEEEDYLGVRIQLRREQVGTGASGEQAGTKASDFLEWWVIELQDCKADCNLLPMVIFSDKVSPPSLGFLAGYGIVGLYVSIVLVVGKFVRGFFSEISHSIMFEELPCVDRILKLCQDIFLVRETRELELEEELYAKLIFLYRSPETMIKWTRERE

Clc1ccnc(Cl)c1CSc1nnc(-c2cnccn2)s1 [YW-3-159]
Ptgs2 expression compared with vehicle [1]: higher Ptgs2 expression | Tnfrsf11b expression compared with vehicle [1]: higher Tnfrsf11b expression | Wnt1 expression compared with vehicle [1]: higher Wnt1 expression | calcium influx / increase of intracellular calcium in Piezo1 knock-down cells [2]: completely blocked; also recorded: loss of their ability to stimulate calcium influx | Piezo1 agonist activity (conclusion in words) ([3]; MLO-Y4 cells): potent agonists for Piezo1; also recorded: potent and specific Piezo1 agonists | activity in activating Piezo1 compared to Yoda1 ([3]; MLO-Y4 cells in vitro): comparable or superior activity
